From ChEMBL document CHEMBL3885881, “DrugMatrix”

Species on record: Rattus norvegicus
Type: toxicity, organism-based, Sprague-Dawley
Conditions: in vivo, ip, 24 h, route intraperitoneal, time 1 day, […]; for ABSOLUTE EOSINOPHIL / ABSOLUTE LYMPHOCYTE / ABSOLUTE MONOCYTE / ABSOLUTE SEGMENTED NEUTROPHIL / BASOPHIL / EOSINOPHIL / ERYTHROCYTE COUNT / HEMATOCRIT / HEMOGLOBIN / LEUKOCYTE COUNT / LYMPHOCYTE / MEAN CORPUSCULAR HEMOGLOBIN / MEAN CORPUSCULAR HEMOGLOBIN CONCENTRATION / MEAN CORPUSCULAR VOLUME / MONOCYTE / NEUTROPHIL / NUCLEATED RED BLOOD CELLS / PLATELET COUNT: tissue Blood; for ALANINE AMINOTRANSFERASE / ALBUMIN / ALKALINE PHOSPHATASE / ASPARTATE AMINOTRANSFERASE / BLOOD UREA NITROGEN / CARBON DIOXIDE / CHLORIDE / CHOLESTEROL / CREATININE / GLUCOSE / LACTATE DEHYDROGENASE / LIPASE / PHOSPHORUS / POTASSIUM / SODIUM / TOTAL BILIRUBIN / TOTAL PROTEIN / URIC ACID: tissue Plasma
[1] = 0 mg/kg, vehicle control, dose level Control

Description: DrugMatrix - Regimen: Single

For `ClC(Cl)=C(Cl)C(Cl)=C(Cl)Cl` [HEXACHLOROBUTADIENE], the “ABSOLUTE EOSINOPHIL” value [1] was 212 CELLS/uL, the “ABSOLUTE LYMPHOCYTE” value [1] was 10220.17 CELLS/uL and the “ABSOLUTE MONOCYTE” value [1] was 368.83 CELLS/uL. For the same compound, the “ABSOLUTE SEGMENTED NEUTROPHIL” value [1] was 1749 CELLS/uL, the BASOPHIL [1] was 0% and the EOSINOPHIL [1] was 1.67%. The “ERYTHROCYTE COUNT” value [1] was 5.74 x10E6/uL, the HEMATOCRIT [1] was 35.72% and the HEMOGLOBIN [1] was 13 G/DL. For the same compound, the “LEUKOCYTE COUNT” value [1] was 12.55 x10E3/uL, the LYMPHOCYTE [1] was 81.83% and the “MEAN CORPUSCULAR HEMOGLOBIN” value [1] was 22.65 pg. For the same compound, the “MEAN CORPUSCULAR HEMOGLOBIN CONCENTRATION” value [1] was 36.42 G/DL, the “MEAN CORPUSCULAR VOLUME” value [1] was 62.18 fL and the MONOCYTE [1] was 2.83%. The NEUTROPHIL [1] was 13.67%, the “NUCLEATED RED BLOOD CELLS” value [1] was 0 /100WBC and the “PLATELET COUNT” value [1] was 841.83 x10E3/uL. The “ALANINE AMINOTRANSFERASE” value [1] was 54 u/L, the ALBUMIN [1] was 4.15 G/DL and the “ALKALINE PHOSPHATASE” value [1] was 357.33 u/L. The “ASPARTATE AMINOTRANSFERASE” value [1] was 116 u/L, the “BLOOD UREA NITROGEN” value [1] was 14.17 mg/dL and the “CARBON DIOXIDE” value [1] was 34.5 mmol/L. The CHLORIDE [1] was 99.17 MEQ/L, the CHOLESTEROL [1] was 79.17 mg/dL and the CREATININE [1] was 0.2 mg/dL. The GLUCOSE [1] was 143.33 mg/dL, the “LACTATE DEHYDROGENASE” value [1] was 187.17 u/L and the LIPASE [1] was 8.83 u/L. The PHOSPHORUS [1] was 11.4 mg/dL, the POTASSIUM [1] was 6.36 MEQ/L and the SODIUM [1] was 143.32 MEQ/L. For the same compound, the “TOTAL BILIRUBIN” value [1] was 0.23 mg/dL, the “TOTAL PROTEIN” value [1] was 6.22 G/DL and the “URIC ACID” value [1] was 1.25 mg/dL. The “ABSOLUTE EOSINOPHIL” value (50 mg/kg, dose level High) was 167 CELLS/uL, the “ABSOLUTE LYMPHOCYTE” value (50 mg/kg, dose level High) was 9489 CELLS/uL and the “ABSOLUTE MONOCYTE” value (50 mg/kg, dose level High) was 340.67 CELLS/uL. The “ABSOLUTE SEGMENTED NEUTROPHIL” value (50 mg/kg, dose level High) was 2070 CELLS/uL, the BASOPHIL (50 mg/kg, dose level High) was 0% and the EOSINOPHIL (50 mg/kg, dose level High) was 1.33%. The “ERYTHROCYTE COUNT” value (50 mg/kg, dose level High) was 5.16 x10E6/uL, the HEMATOCRIT (50 mg/kg, dose level High) was 31.83% and the HEMOGLOBIN (50 mg/kg, dose level High) was 11.8 G/DL. For the same compound, the “LEUKOCYTE COUNT” value (50 mg/kg, dose level High) was 12.07 x10E3/uL, the LYMPHOCYTE (50 mg/kg, dose level High) was 79.33% and the “MEAN CORPUSCULAR HEMOGLOBIN” value (50 mg/kg, dose level High) was 22.87 pg. For the same compound, the “MEAN CORPUSCULAR HEMOGLOBIN CONCENTRATION” value (50 mg/kg, dose level High) was 37.07 G/DL, the “MEAN CORPUSCULAR VOLUME” value (50 mg/kg, dose level High) was 61.67 fL and the MONOCYTE (50 mg/kg, dose level High) was 2.67%. For the same compound, the NEUTROPHIL (50 mg/kg, dose level High) was 16.67%, the “NUCLEATED RED BLOOD CELLS” value (50 mg/kg, dose level High) was 0 /100WBC and the “PLATELET COUNT” value (50 mg/kg, dose level High) was 549 x10E3/uL. For the same compound, the “ALANINE AMINOTRANSFERASE” value (50 mg/kg, dose level High) was 65.67 u/L, the ALBUMIN (50 mg/kg, dose level High) was 4.2 G/DL and the “ALKALINE PHOSPHATASE” value (50 mg/kg, dose level High) was 368.67 u/L. The “ASPARTATE AMINOTRANSFERASE” value (50 mg/kg, dose level High) was 251.67 u/L, the “BLOOD UREA NITROGEN” value (50 mg/kg, dose level High) was 15.33 mg/dL and the “CARBON DIOXIDE” value (50 mg/kg, dose level High) was 30.33 mmol/L. It also gave a CHLORIDE (50 mg/kg, dose level High) of 100.67 MEQ/L, a CHOLESTEROL (50 mg/kg, dose level High) of 75.67 mg/dL and a CREATININE (50 mg/kg, dose level High) of 0.22 mg/dL. For the same compound, the GLUCOSE (50 mg/kg, dose level High) was 192.33 mg/dL, the “LACTATE DEHYDROGENASE” value (50 mg/kg, dose level High) was 377.67 u/L and the LIPASE (50 mg/kg, dose level High) was 9 u/L. It also gave a PHOSPHORUS (50 mg/kg, dose level High) of 12.03 mg/dL, a POTASSIUM (50 mg/kg, dose level High) of 5.96 MEQ/L and an SODIUM (50 mg/kg, dose level High) of 144.97 MEQ/L. For the same compound, the “TOTAL BILIRUBIN” value (50 mg/kg, dose level High) was 0.23 mg/dL, the “TOTAL PROTEIN” value (50 mg/kg, dose level High) was 6.1 G/DL and the “URIC ACID” value (50 mg/kg, dose level High) was 1.2 mg/dL.
